The values that follow come from patent publication US20080195322A1, “Quantification of the Effects of Perturbations on Biological Samples” (The Board of Regents of the University of Texas System, priority 2007, published 2008).

In this experiment the test system is HeLa cells. In words: High-throughput image-based multivariate phenotypic profiling (d-profiles) of the 100-compound compendium by fluorescence microscopy. The format is cell-based, human. As to conditions: for compound closest to first d-profile / compound closest to second d-profile: compounds with multiple d-profiles. The protocol:
To illustrate the performance of the present multivariate approach, the disclosed methods were applied to a compendium of fluorescence microscopy images in which HeLa cells were treated with 100 compounds, dissolved in dimethyl sulfoxide (DMSO), over 13 threefold titrations as shown in FIGS. 5A and 5B. The compounds represented approximately 20 categories of activities as shown in the table of FIG. 6, selected to cover mechanisms of toxicity, signaling pathways, and therapeutic targets in cancer and other diseases. Compound effects were assayed in duplicate on 384-well plates, using four sets of multiplexed molecular markers (DNA-SC35-anillin; DNA-p53-cFos; DNA-p38-pERK; DNA-mirotubule-actin). On average, 2413±852 (mean±standard deviation) cells were captured per well, from 103,580 images per marker set, to yield a total of ˜37 million individual identified cells. Cells treated with DMSO alone were used as controls.
Although most of these features were derived from the measurements of individual markers, some features measured information from more than one marker (such as the spatial correlation between the intensities of two different markers).
Due to biological and experimental variability, the significance thresholds of classification accuracy at p=0.05 estimated on every plate were much higher than 50% (FIGS. 8A-D, lower panels, dashed lines), and occasionally could reach as high as 90%. Therefore, well-to-well variability, even within the control population, could be high and should not be ignored.
To simulate a drug screen for compounds of similar target to a known compound, a d-profile was selected to be the reference profile, while all other d-profiles from the compendium were used as blinded test profiles. Similarity scores between the reference profile and all other test profiles were computed and ranked. The test profiles that were most similar to the reference profile were selected as “drug candidates.”
For each reference profile, the performance in identifying test profiles was estimated with similar a target on each marker set by using prior target annotations as the “gold standard.” […] was used as the performance evaluation criterion (Methods). “On-target” effects were defined as d-profiles whose AUC values were significant (p<0.05), and all other d-profiles were defined as “off-target.” 73%, 40%, 67%, and 56% of the compounds with more than one d-profile and at least one on-target d-profile had at least one off-target d-profile on the DNA-SC35-anillin, DNA-p53-cFos, DNA-p38-pERK and DNA-MT-actin marker sets respectively. […] Thus, the present method can identify dose-dependent secondary or tertiary responses that were very different from the primary responses.
The compound category of a novel d-profile may be inferred by comparison to a collection of previously categorized reference d-profiles. […] Although all of these compounds are histone deacetylase inhibitors, oxamflatin, trichostatin, and scriptaid are hydroxamic acids having very different chemical structures than apicidin, a cyclic tetrapeptide. […] For a d-profile, an accurate prediction was made when its most similar d-profile was annotated to the same target category.

The mark [1] stands for this setting: drug screening simulation against prior target annotations.

As for `NC(=O)NO` [hydroxy urea-2, hydroxy urea], the “most similar d-profiles (category prediction)” value (DNA-p53-cFos marker set) is “most similar to aphidicolin and methotrexate”.

For `COC(=O)Nc1nc2ccc(C(=O)c3cccs3)cc2[nH]1` [nocadazale, Nocodazole], the “d-profile similarity to the group of microtubule stabilizing compounds (taxol second d-profile, epothilone B, griseofulvin)” value (category prediction) is given as “further away”.

For the setting “across all four marker sets, 13 threefold titrations”, `CC(=O)O[C@H]1C(=O)[C@@]2(C)[C@H]([C@H](OC(=O)c3ccccc3)[C@]3(O)C[C@H](OC(=O)[C@H](O)[C@@H](NC(=O)c4ccccc4)c4ccccc4)C(C)=C1C3(C)C)[C@]1(OC(C)=O)CO[C@@H]1C[C@@H]2O` [taxol, Taxol] displayed a number of d-profiles of 2. Further, where the note is “category prediction”, the “compound closest to first d-profile” value is given as “closest to sulindac sulfide”; the “compound closest to second d-profile” value is “closest to epothilone B and griseofulvin”.

Oxamflatin: for the setting “DNA-p38-pERK marker set”, the “most similar d-profiles (category prediction)” value is “most similar to trichostatin, scriptaid, and apicidin”.

Consider `CC[C@@]1(O)C(=O)OCc2c1cc1n(c2=O)Cc2cc3ccccc3nc2-1` [Camptothecin], for which, under “category prediction”, the “compound closest to first d-profile” value is listed as “closest to another topoisomerase inhibitor, etoposide” and the “compound closest to second d-profile” value was “closest to a CDK inhibitor, alsterpullone”. In addition, under setting [1], the “off-target effects (d-profiles whose AUC not significant)” value is “one off-target effect” and the “on-target effects (d-profiles whose AUC values were significant, p<0.05)” value is listed as “one on-target effect”.

For `COc1cccc2c1C(=O)c1c(O)c3c(c(O)c1C2=O)C[C@@](O)(C(=O)CO)C[C@@H]3O[C@H]1C[C@H](N)[C@H](O)[C@H](C)O1` [doxorubixin], the “number of features needed to detect compound effects after recursive feature removal” value (in each of the four marker sets) is “only a single feature”.
